Target: c-MET (Homo sapiens, UniProt P08581)
Assay: Ki determination for the inhibition of c-MET (standard radiometric 33P-ATP kinase assay, polyE4Y substrate)
Format: biochemical
Settings: 1.0 nM c-Met, 35 μM ATP, 0.5 mg/mL polyE4Y, 20 min; competitive tight-binding fit
Outline: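 Radiometric assay of 33P transfer from 33P-ATP (35 μM) to polyE4Y (0.5 mg/mL) by 1.0 nM c-Met in 100 mM HEPES pH 7.5, 10 mM MgCl2, 25 mM NaCl, 0.01% BSA, 1 mM DTT. TCA-quenched after 20 min, filter-captured, scintillation-counted; Ki fitted to a competitive tight-binding model.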

Chain of c-MET (P08581 25-1390): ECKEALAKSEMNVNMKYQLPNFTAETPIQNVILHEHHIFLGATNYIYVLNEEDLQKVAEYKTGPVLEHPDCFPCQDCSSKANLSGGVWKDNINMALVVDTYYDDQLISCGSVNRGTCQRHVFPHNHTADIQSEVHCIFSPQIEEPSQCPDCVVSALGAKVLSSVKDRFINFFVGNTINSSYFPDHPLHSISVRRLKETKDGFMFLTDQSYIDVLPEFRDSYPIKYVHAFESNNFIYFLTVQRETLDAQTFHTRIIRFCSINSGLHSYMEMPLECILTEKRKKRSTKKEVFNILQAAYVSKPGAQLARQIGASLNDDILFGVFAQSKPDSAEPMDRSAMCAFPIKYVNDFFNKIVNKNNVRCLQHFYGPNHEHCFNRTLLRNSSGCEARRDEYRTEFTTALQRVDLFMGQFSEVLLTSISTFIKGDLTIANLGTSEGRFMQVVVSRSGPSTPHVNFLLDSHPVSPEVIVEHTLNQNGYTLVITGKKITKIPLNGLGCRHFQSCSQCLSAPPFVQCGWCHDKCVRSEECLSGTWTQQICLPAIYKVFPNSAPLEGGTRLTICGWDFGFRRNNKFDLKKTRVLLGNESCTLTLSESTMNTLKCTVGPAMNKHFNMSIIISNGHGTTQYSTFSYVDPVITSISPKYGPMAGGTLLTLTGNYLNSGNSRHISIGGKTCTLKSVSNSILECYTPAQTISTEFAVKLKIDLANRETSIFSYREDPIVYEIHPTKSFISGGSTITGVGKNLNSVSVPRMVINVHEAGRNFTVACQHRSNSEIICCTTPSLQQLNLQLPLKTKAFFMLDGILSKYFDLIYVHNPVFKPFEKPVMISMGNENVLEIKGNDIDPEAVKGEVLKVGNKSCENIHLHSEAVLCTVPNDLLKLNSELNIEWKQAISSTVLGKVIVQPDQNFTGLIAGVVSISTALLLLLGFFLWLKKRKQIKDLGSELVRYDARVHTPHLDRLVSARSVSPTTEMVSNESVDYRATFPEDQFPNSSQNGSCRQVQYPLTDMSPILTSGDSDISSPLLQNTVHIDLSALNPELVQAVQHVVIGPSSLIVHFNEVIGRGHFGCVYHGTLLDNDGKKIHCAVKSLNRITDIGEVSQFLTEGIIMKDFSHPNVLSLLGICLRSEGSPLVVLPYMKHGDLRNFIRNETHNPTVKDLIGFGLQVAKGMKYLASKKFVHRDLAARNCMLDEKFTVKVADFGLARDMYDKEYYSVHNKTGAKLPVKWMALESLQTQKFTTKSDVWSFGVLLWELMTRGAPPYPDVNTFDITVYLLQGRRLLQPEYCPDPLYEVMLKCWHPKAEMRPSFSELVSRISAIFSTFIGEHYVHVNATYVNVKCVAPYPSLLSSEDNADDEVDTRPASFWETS

Compound | Ki [nM]
CCCC(=O)Nc1ccc(-c2cnc(N)c(-c3nnnn3-c3cccc(F)c3F)c2)cc1 [I-A-195] | 100 to 1000
CN(C)CCn1cc(-c2cnc(N)c(-c3nnnn3-c3cccc(Cl)c3Cl)c2)cn1 [I-A-410] | ≤ 100
COc1ccc(-c2cnc(N)c(-c3nnnn3-c3cccc(F)c3F)c2)cc1F [I-A-290] | ≤ 100
CN1CCN(c2ccc(-c3cnc(N)c(-c4nncn4-c4cccc(F)c4F)n3)cc2)CC1 [I-A-7] | ≤ 100
Nc1ncc(-c2ccc(CN3CCCC3)cc2)cc1-c1nnnn1-c1cc(F)cc(F)c1 [I-A-603] | 100 to 1000
COC(=O)c1cccc(-c2cnc(N)c(-c3nnnn3-c3cccc(F)c3F)c2)c1 [I-A-317] | 100 to 1000
CC(=O)Nc1cccc(-c2cnc(N)c(-c3nnnn3-c3cccc(Cl)c3)c2)c1 [I-A-359] | 100 to 1000
CC(=O)Nc1cccc(-c2cnc(N)c(-c3nnnn3-c3cc(F)ccc3Cl)c2)c1 [I-A-569] | 100 to 1000
CC(=O)Nc1cccc(-c2cnc(N)c(-c3nnnn3-c3c(F)cccc3Cl)c2)c1 [I-A-612] | 100 to 1000
CCN1CCC(n2cc(-c3cnc(N)c(-c4nncn4-c4cccc(Cl)c4F)c3)cn2)CC1 [I-A-458] | ≤ 100
Nc1ncc(-c2cccc(C(F)(F)F)c2)cc1-c1nncn1-c1cccc(F)c1F [I-A-116] | 100 to 1000
Nc1ncc(-c2ccccc2)cc1-c1nncn1-c1cccc(Cl)c1Cl [I-A-74] | 100 to 1000
Nc1ncc(-c2ccc(CN3CCC(O)CC3)cc2)cc1-c1nnnn1-c1cccc(Cl)c1Cl [I-A-97] | ≤ 100
CC(=O)c1cccc(-c2cnc(N)c(-c3nncn3-c3cccc(F)c3F)n2)c1 [I-A-29] | 100 to 1000
Nc1ncc(C2=CCN(C(=O)O[C@H]3CCOC3)CC2)cc1-c1nnnn1-c1cccc(F)c1F [I-A-526] | ≤ 100
Nc1ncc(C2=CCN(C(=O)C3CCOCC3)CC2)cc1-c1nnnn1-c1cccc(F)c1F [I-A-521] | ≤ 100
Nc1ncc(-c2ccc(CN3CCCC3)cc2)cc1-c1nnnn1-c1cc(Cl)ccc1F [I-A-595] | 100 to 1000
Nc1ncc(C2=CCN(CC3CCOC3)CC2)cc1-c1nnnn1-c1cccc(F)c1F (stereo not drawn) [I-A-643] | 100 to 1000
Nc1ncc(C2=CCN(C(=O)CC3CCOCC3)CC2)cc1-c1nnnn1-c1cccc(F)c1F [I-A-516] | ≤ 100
CN1CCN(c2ccc(-c3cnc(N)c(-c4nnc(O)n4-c4cccc(F)c4F)n3)cc2)CC1 [I-A-17] | 100 to 1000
Nc1ncc(-c2cccc(CO)c2)cc1-c1nnnn1-c1cccc(F)c1F [I-A-231] | ≤ 100
Nc1ncc(-c2csc(C3CCNCC3)c2)cc1-c1nnnn1-c1cccc(F)c1F [I-A-463] | ≤ 100
NCc1ccc(-c2cnc(N)c(-c3nnnn3-c3cccc(F)c3F)c2)cc1 [I-A-202] | ≤ 100
CN1CCC(n2cc(-c3cnc(N)c(-c4nnnn4-c4cccc(F)c4F)c3)cn2)CC1 [I-A-434] | ≤ 100
CC(=O)Nc1cccc(-c2cnc(N)c(-c3nnnn3-c3cccc(F)c3C)c2)c1 [I-A-564] | 100 to 1000
CN1CCN(Cc2ccc(-c3cnc(N)c(-c4nnc(O)n4-c4cccc(F)c4F)c3)cc2)CC1 [I-A-42] | 100 to 1000
CN(C)CC(=O)Nc1ccc(-c2cnc(N)c(-c3nnnn3-c3cccc(F)c3F)c2)cc1 [I-A-191] | ≤ 100

Reference: patent publication US8232406B2, “c-MET protein kinase inhibitors” (Vertex Pharmaceuticals Incorporated, priority 2006, dated 2012)
